Test results published in ChEMBL document CHEMBL3085740, “Aziridines from alkenyl-β-D-galactopyranoside derivatives: Stereoselective synthesis and in vitro selective anticancer activity” (Eur J Med Chem, 2013).

Legend:
MRC5 = assay: Cytotoxicity against human MRC5 cells after 48 hrs by MTT assay; assay type: cell-based; settings: MRC5, 48 h
A549 [1] = assay: Cytotoxicity against human A549 cells after 48 hrs by MTT assay; assay type: functional, cell-based; settings: A549, 48 h
[2] = Cytotoxicity against human MRC5 cells assessed as cell survival at 10 to 320 uM after 48 hrs by MTT assay; assay type: cell-based; settings: read-out: Survival
A549 [3] = assay: Cytotoxicity against human A549 cells at 300 uM after 48 hrs by MTT assay; assay type: functional
UACC-62 [4] = assay: Cytotoxicity against human UACC62 cells after 48 hrs by MTT assay; assay type: functional, cell-based; settings: UACC-62, 48 h
[5] = Cytotoxicity against human VH10 cells after 48 hrs by MTT assay; assay type: cell-based; settings: VH10, 48 h
UACC-62 [6] = assay: Cytotoxicity against human UACC62 cells assessed as cell viability at 1 mM after 48 hrs by MTT assay; assay type: functional; settings: UACC-62, 48 h, read-out: Activity
[7] = Cytotoxicity against human VH10 cells at 1 mM after 48 hrs by MTT assay; assay type: cell-based; settings: vh10, 48 h, 1000 µM
[8] = Cytotoxicity against human MCF10 cells assessed as cell survival at 264 uM after 48 hrs by MTT assay; assay type: cell-based; settings: read-out: Survival
MCF10 = assay: Cytotoxicity against human MCF10 cells after 48 hrs by MTT assay; assay type: cell-based; settings: MCF10, 48 h
MCF7 = assay: Cytotoxicity against human MCF7 cells after 48 hrs by MTT assay; assay type: functional, cell-based; settings: MCF7, 48 h

## CCCC1(CO[C@@H]2O[C@@H]3CO[C@H](c4ccccc4)O[C@@H]3[C@H](OCc3ccccc3)[C@H]2OCc2ccccc2)CN1S(=O)(=O)c1ccc(C)cc1 (stereo partly drawn)
MRC5
  IC50: 793 µM
A549 [1]
  IC50: 579 µM

## CCCCCCCC1C(CO[C@@H]2O[C@@H]3CO[C@H](c4ccccc4)O[C@@H]3[C@H](OCc3ccccc3)[C@H]2O)N1S(=O)(=O)c1ccc(C)cc1 (stereo partly drawn)
[2]
  viability at 48 h, up to 320 µM: 90%
MRC5
  IC50: > 1000 µM
A549 [1]
  IC50: 235 µM

## Cc1ccc(S(=O)(=O)N2CC2(C)CO[C@@H]2O[C@@H]3CO[C@H](c4ccccc4)O[C@@H]3[C@H](O)[C@H]2O)cc1 (stereo partly drawn)
MRC5
  IC50: 312 µM
A549 [1]
  IC50: 154 µM

## CCCCCCCCCC1(CO[C@@H]2O[C@@H]3CO[C@H](c4ccccc4)O[C@@H]3[C@H](OCc3ccccc3)[C@H]2OCc2ccccc2)CN1S(=O)(=O)c1ccc(C)cc1 (stereo partly drawn)
A549 [3]
  Activity: 30%
[2]
  viability at 48 h, up to 320 µM: 90%
MRC5
  IC50: 575 µM
A549 [1]
  IC50: 154 µM

## Cc1ccc(S(=O)(=O)N2C(CO[C@@H]3O[C@@H]4CO[C@H](c5ccccc5)O[C@@H]4[C@H](O)[C@H]3O)C2(C)C)cc1 (stereo partly drawn)
MRC5
  IC50: 567 µM
A549 [1]
  IC50: 389 µM

## Cc1ccc(S(=O)(=O)N2C(C)C2CO[C@@H]2O[C@@H]3CO[C@H](c4ccccc4)O[C@@H]3[C@H](O)[C@H]2O)cc1 (stereo partly drawn)
MRC5
  IC50: 544 µM
A549 [1]
  IC50: 351 µM

## CCCCCCCCCCCCNCC(C)(CO[C@@H]1O[C@@H]2CO[C@H](c3ccccc3)O[C@@H]2[C@H](OCc2ccccc2)[C@H]1OCc1ccccc1)NS(=O)(=O)c1ccc(C)cc1 (stereo partly drawn)
MRC5
  IC50: 156 µM
A549 [1]
  IC50: 492 µM

## O=c1[nH]cc(F)c(=O)[nH]1 [FLUOROURACIL]
UACC-62 [4]
  IC50: 264 µM
[5]
  IC50: > 1000 µM

## Cc1ccc(S(=O)(=O)N2CC2(C)CO[C@@H]2O[C@@H]3CO[C@H](c4ccccc4)O[C@@H]3[C@H](OCc3ccccc3)[C@H]2OCc2ccccc2)cc1 (stereo partly drawn)
UACC-62 [6]
  viability at 1000 µM: 10%
[7]
  Activity: Non-toxic
[8]
  viability at 48 h, 264 µM: 80%
A549 [3]
  Activity: 30%
[2]
  viability at 48 h, up to 320 µM: 90%
UACC-62 [4]
  IC50: 196 µM
MCF10
  IC50: 567 µM
[5]
  IC50: > 1000 µM
MCF7
  IC50: 12 µM
MRC5
  IC50: > 1000 µM
A549 [1]
  IC50: 153 µM

## Cc1ccc(S(=O)(=O)N2C(CO[C@@H]3O[C@@H]4CO[C@H](c5ccccc5)O[C@@H]4[C@H](OCc4ccccc4)[C@H]3OCc3ccccc3)C2(C)C)cc1 (stereo partly drawn)
MRC5
  IC50: > 1000 µM
A549 [1]
  IC50: > 1000 µM

## Cc1ccc(S(=O)(=O)N2CC2CO[C@@H]2O[C@@H]3CO[C@H](c4ccccc4)O[C@@H]3[C@H](OCc3ccccc3)[C@H]2OCc2ccccc2)cc1 (stereo partly drawn)
[2]
  viability at 48 h, up to 320 µM: 90%
MRC5
  IC50: 183 µM
A549 [1]
  IC50: 73 µM

## Cc1ccc(S(=O)(=O)N2CC2(CO[C@@H]2O[C@@H]3CO[C@H](c4ccccc4)O[C@@H]3[C@H](OCc3ccccc3)[C@H]2OCc2ccccc2)c2ccccc2)cc1 (stereo partly drawn)
MRC5
  IC50: 570 µM
A549 [1]
  IC50: 599 µM

## Cc1ccc(S(=O)(=O)N2C(C)C2CO[C@@H]2O[C@@H]3CO[C@H](c4ccccc4)O[C@@H]3[C@H](OCc3ccccc3)[C@H]2OCc2ccccc2)cc1 (stereo partly drawn)
MRC5
  IC50: > 1000 µM
A549 [1]
  IC50: 804 µM

## CCCCCCCCCCCCCCC(CO[C@@H]1O[C@@H]2CO[C@H](c3ccccc3)O[C@@H]2[C@H](OCc2ccccc2)[C@H]1OCc1ccccc1)(CN1CCN(CCO)CC1)NS(=O)(=O)c1ccc(C)cc1 (stereo partly drawn)
MRC5
  IC50: 2 µM
A549 [1]
  IC50: 15 µM

## CCCCCCCCCCCCCCC1(CO[C@@H]2O[C@@H]3CO[C@H](c4ccccc4)O[C@@H]3[C@H](OCc3ccccc3)[C@H]2OCc2ccccc2)CN1S(=O)(=O)c1ccc(C)cc1 (stereo partly drawn)
MRC5
  IC50: 1000 µM
A549 [1]
  IC50: 1000 µM
